Test results reported in patent US4889800A (priority 1987, dated 1989).
“And” between values parts separate entries of the source, which are not always exact repeats. Equal entries are not always repeated. “Also recorded” adds a separate entry of the source. Where no end group is shown, it is not given here.

System: guinea pigs immunized with mycobacterial cell sonicates
Details: guinea pig, in vivo

Q: What does the source list for “CAKVNIKPLQDKIC (cysteine pairing not given here) [Polypeptide (diCys Terminated), residues 1-12 of the BCG-a protein with Cys at both termini]”?
A: DCH Reaction To 250 Micrograms Of Polypeptide (positive DCH reactions/total trials): 7/7 and 4/4 and 0/4 and 0/3 and 2/4 and 5/5 and 0/5; DCH reaction (in words): most pronounced DCH reactions; also recorded: developed a DCH reaction; delayed cutaneous hypersensitivity reaction (in words): more pronounced delayed cutaneous hypersensitivity reaction
